We go through eleven molecules from patent US20060247231A1, “Amide and ester matrix metalloproteinase inhibitors” (Warner-Lambert Company LLC, priority 2003, published 2006).

In general, IC50 refers to the concentration that inhibits the measured activity by half. High values mean weaker potency in that assay, low ones greater potency in that assay.

Assay type in all cases: biochemical
Experiment [1] deals with MMP-3CD (catalytic domain of stromelysin) (Homo sapiens, UniProt P08254). In words: MMP-3 catalytic domain inhibition (Biological Methods 1, 2, or 5). The method, then:
(§1) Thiopeptolide substrates show virtually no decomposition or hydrolysis at or below neutral pH in the absence of a matrix metalloproteinase enzyme. A typical thiopeptolide substrate commonly utilized for assays is Ac-Pro-Leu-Gly-thioester-Leu-Leu-Gly-OEt. A 100 μL assay mixture will contain a suitable amount of the MMP enzyme such as an amount described in Ye Qi-Zhuang, et al., 1996, supra, 50 mM of N-2-hydroxyethylpiperazine-N′-2-ethanesulfonic acid buffer (“HEPES,” pH 7.0), 10 mM CaCl2, 100 μM thiopeptolide substrate, and 1 mM 5,5′-dithio-bis-(2-nitro-benzoic acid) (DTNB). The thiopeptolide substrate concentration may be varied, for example from 10 to 800 μM to obtain Km and Kcat values. The change in absorbance at 405 nm is monitored on a Thermo Max microplate reader (molecular Devices, Menlo Park, Calif.) at room temperature (22° C.). The calculation of the amount of hydrolysis of the thiopeptolide substrate is based on E412=13600 M^−1 cm^−1 for the DTNB-derived product 3-carboxy-4-nitrothiophenoxide. Assays are carried out with and without matrix metalloproteinase inhibitor compounds, and the amount of hydrolysis is compared for a determination of inhibitory activity of the test compounds.
(§2) Test compounds are evaluated at various concentrations in order to determine their respective IC50 values, the micromolar concentration of compound required to cause a 50% inhibition of catalytic activity of the respective enzyme.
It should be appreciated that the assay buffer used with MMP-3CD was 50 mM N-morpholinoethane sulfonate (“MES”) at pH 6.0 rather than the HEPES buffer at pH 7.0 described above.
(§3) Test compounds can be evaluated according to Biological Method 1 at various concentrations in order to determine their respective IC50 values, typically the micromolar concentration of compound required to cause a 50% inhibition of the hydrolytic activity of the respective enzyme.
(§4) Some representative compounds of Formula I have been evaluated according to Biological Method 1 for their ability to inhibit MMP-13 and other MMP enzymes, including MMP-1, MMP-2, MMP-3, MMP-7, MMP-8, MMP-9, MMP-12, MMP14, and MMP-17. Inhibitor activity versus other MMPs with the compounds may be determined using, for example, MMP-1FL, which refers to full length interstitial collagenase; MMP-2FL, which refers to full length Gelatinase A; MMP-3CD, which refers to the catalytic domain of stromelysin; MMP-7FL, which refers to full length matrilysin; MMP-9FL, which refers to full length Gelatinase B; MMP-13CD, which refers to the catalytic domain of collagenase 3; and MMP-14CD, which refers to the catalytic domain of MMP-14.
(§5) The method of Biological Method 1, except thiopeptolide substrate is replaced with a fluorigenic peptide such as Fluorigenic peptide-1.
(§6) Shown below in Table 1 are the inhibition of MMP-13 catalytic domain, expressed as IC50's, for the compounds of Compound Examples A1 to A8, B1 to B4, and C1 in the column labelled “MMP-13CD IC50 (μM)”.

The target in a further experiment is T1, MMP-17CD (Homo sapiens, UniProt Q9ULZ9).
T1 construct: MMP-17 catalytic domain (“MMP-17CD”)
T1 sequence (Q9ULZ9 126-295 limits assumed): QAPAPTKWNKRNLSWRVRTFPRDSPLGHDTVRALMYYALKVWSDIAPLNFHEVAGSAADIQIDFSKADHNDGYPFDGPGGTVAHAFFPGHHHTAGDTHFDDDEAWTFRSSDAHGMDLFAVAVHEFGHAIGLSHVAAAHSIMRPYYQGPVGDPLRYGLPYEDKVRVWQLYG
The experiment can be described thus: MMP-17 catalytic domain inhibition (Biological Methods 1, 2, or 5). On the procedure: as §1, §2, §3, §4, §5, §6

In experiment [2] the target is MMP-14CD (catalytic domain of MMP-14) (Homo sapiens, UniProt P50281). The experiment can be described thus: MMP-14 catalytic domain inhibition (Biological Methods 1, 2, or 5). On the procedure:
as §1, §2, §3, §4, §5, §6

In experiment [3] the target is T2, MMP-1FL (full length interstitial collagenase) (Homo sapiens, UniProt P03956).
T2 sequence (P03956 100-469): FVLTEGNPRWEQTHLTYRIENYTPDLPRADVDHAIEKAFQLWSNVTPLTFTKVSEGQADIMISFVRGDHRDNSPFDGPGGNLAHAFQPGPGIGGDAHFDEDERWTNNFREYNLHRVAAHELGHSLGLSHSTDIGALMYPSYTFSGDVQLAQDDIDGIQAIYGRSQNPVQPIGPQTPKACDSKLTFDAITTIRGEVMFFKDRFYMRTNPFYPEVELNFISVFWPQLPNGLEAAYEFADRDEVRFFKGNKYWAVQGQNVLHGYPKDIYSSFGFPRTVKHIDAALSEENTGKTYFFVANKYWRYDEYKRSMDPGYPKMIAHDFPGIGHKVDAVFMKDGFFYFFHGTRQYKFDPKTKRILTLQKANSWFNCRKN
The experiment can be described thus: MMP-1 full-length inhibition (Biological Methods 1, 2, or 5). On the procedure: (§7) Thiopeptolide substrates show virtually no decomposition or hydrolysis at or below neutral pH in the absence of a matrix metalloproteinase enzyme. A typical thiopeptolide substrate commonly utilized for assays is Ac-Pro-Leu-Gly-thioester-Leu-Leu-Gly-OEt. A 100 μL assay mixture will contain a suitable amount of the MMP enzyme such as an amount described in Ye Qi-Zhuang, et al., 1996, supra, 50 mM of N-2-hydroxyethylpiperazine-N′-2-ethanesulfonic acid buffer (“HEPES,” pH 7.0), 10 mM CaCl2, 100 μM thiopeptolide substrate, and 1 mM 5,5′-dithio-bis-(2-nitro-benzoic acid) (DTNB). The thiopeptolide substrate concentration may be varied, for example from 10 to 800 μM to obtain Km and Kcat values. The change in absorbance at 405 nm is monitored on a Thermo Max microplate reader (molecular Devices, Menlo Park, Calif.) at room temperature (22° C.). The calculation of the amount of hydrolysis of the thiopeptolide substrate is based on E412=13600 M^−1 cm^−1 for the DTNB-derived product 3-carboxy-4-nitrothiophenoxide. […]
as §4, with “MMP-14. […]” for “MMP-14.”
as §6

The target of experiment [4] is T3, MMP-13 catalytic domain (MMP-13CD) (Homo sapiens, UniProt P45452).
T3 construct: particularly MMP-13 catalytic domain (“MMP-13CD”)
In words: MMP-13 catalytic domain inhibition (Biological Methods 1, 2, or 5). On the procedure:
as §1, §2, §3, §4, §5
Fluorigenic peptide-1 substrate based assay for identifying compounds of Formula I as allosteric inhibitors of MMP-13:
• 50 mM HEPES buffer (pH 7.0) • 10 mM CaCl2 • 10 μM fluorigenic peptide-1 (“FP1”) substrate • 0 or 15 mM acetohydroxamic acid (AcNHOH)=1 Kd • 2% DMSO (with or without inhibitor test compound) • 0.5 nM MMP-13CD enzyme Stock Solutions: • 1) 10× assay buffer: 500 mM HEPES buffer (pH 7.0) plus 100 mM CaCl2 • 2) 10 mM FP1 substrate: (Mca)-Pro-Leu-Gly-Leu-(Dnp)-Dpa-Ala-Arg-NH2 (Bachem, M-1895; “A novel coumarin-labeled peptide for sensitive continuous assays of the matrix metalloproteinases,” Knight C. G., Willenbrock F., and Murphy, G., FEBS Lett., 1992;296:263-266). Is prepared 10 mM stock by dissolving 5 mg FP1 in 0.457 mL DMSO. • 3) 3 M AcNHOH: Is prepared by adding 4 mL H2O and 1 mL 10× assay buffer to 2.25 g AcNHOH (Aldrich 15,903-4). Adjusting pH to 7.0 with NaOH. Diluting volume to 10 mL with H2O. Final solution will contain 3 M AcNHOH, 50 mM HEPES buffer (pH 7.0), and 10 mM CaCl2. • 4) AcNHOH dilution buffer: 50 mM HEPES buffer (pH 7.0) plus 10 mM CaCl2 • 5) MMP-13CD enzyme: Stock concentration=250 nM. • 6) Enzyme dilution buffer: 50 mM HEPES buffer (pH 7.0), 10 mM CaCl2, and 0.005% BRU 35 detergent (Calbiochem 203728; Protein Grade, 10%) Procedure (For One 96-well Microplate): • A. Prepared assay mixture: […]

For experiment [5], the target named is T4, MMP-7FL (full length matrilysin) (Homo sapiens, UniProt P09237).
T4 sequence (P09237 95-267): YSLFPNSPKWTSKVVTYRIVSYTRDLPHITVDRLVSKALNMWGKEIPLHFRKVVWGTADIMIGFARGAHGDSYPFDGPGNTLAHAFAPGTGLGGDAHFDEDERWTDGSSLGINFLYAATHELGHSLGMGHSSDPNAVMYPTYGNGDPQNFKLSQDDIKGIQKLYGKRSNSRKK
The experiment can be described thus: MMP-7 full-length inhibition (Biological Methods 1, 2, or 5). On the procedure:
as §7
as §4, with “MMP-14. […]” for “MMP-14.”
as §6

Another experiment has as its target T5, MMP-8FL (Homo sapiens, UniProt P22894).
T5 construct: MMP-8 full-length
The experiment can be described thus: MMP-8 full-length inhibition (Biological Methods 1, 2, or 5). On the procedure: as §1, §2, §3, §4, §5, §6

The target in experiment [6] is MMP-9FL (full length Gelatinase B) (Homo sapiens, UniProt P14780). In words: MMP-9 full-length inhibition (Biological Methods 1, 2, or 5). On the procedure: as §1, §2, §3, §4, §5, §6
Chain of MMP-9FL (full length Gelatinase B) (P14780 94-707): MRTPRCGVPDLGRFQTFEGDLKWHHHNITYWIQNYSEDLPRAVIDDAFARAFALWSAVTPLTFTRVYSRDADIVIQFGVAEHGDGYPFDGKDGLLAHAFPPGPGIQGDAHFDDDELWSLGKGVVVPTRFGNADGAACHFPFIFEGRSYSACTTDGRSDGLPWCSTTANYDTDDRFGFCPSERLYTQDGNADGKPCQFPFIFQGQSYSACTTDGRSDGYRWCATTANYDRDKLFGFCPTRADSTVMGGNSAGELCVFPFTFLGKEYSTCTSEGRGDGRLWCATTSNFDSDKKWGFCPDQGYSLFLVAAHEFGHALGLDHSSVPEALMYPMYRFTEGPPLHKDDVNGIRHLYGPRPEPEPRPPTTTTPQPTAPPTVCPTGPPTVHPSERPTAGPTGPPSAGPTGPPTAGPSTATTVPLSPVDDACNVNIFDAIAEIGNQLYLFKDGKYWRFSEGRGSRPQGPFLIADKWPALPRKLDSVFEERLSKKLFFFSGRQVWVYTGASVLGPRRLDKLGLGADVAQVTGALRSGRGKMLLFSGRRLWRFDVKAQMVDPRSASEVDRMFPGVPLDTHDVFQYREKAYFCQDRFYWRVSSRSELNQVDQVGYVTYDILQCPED
For the next experiment, the target named is T6, MMP-12CD (Homo sapiens, UniProt P39900).
T6 construct: MMP-12 catalytic domain (“MMP-12CD”)
T6 sequence (P39900 106-263 limits assumed): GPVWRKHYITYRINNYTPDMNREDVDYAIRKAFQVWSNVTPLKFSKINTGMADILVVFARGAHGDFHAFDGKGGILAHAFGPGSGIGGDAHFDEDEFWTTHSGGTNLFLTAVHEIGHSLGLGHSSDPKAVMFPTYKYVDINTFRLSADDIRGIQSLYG
In words: MMP-12 catalytic domain inhibition (Biological Methods 1, 2, or 5). The method, then: as §1, §2, §3, §4, §5, §6

Chain of MMP-3CD (catalytic domain of stromelysin) (P08254 100-272 limits assumed): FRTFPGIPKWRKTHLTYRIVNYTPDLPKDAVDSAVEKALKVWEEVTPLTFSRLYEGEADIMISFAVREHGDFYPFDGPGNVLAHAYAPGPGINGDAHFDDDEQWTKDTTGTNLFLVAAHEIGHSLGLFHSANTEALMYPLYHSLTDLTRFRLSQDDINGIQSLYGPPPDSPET
T5 sequence (P22894 101-467): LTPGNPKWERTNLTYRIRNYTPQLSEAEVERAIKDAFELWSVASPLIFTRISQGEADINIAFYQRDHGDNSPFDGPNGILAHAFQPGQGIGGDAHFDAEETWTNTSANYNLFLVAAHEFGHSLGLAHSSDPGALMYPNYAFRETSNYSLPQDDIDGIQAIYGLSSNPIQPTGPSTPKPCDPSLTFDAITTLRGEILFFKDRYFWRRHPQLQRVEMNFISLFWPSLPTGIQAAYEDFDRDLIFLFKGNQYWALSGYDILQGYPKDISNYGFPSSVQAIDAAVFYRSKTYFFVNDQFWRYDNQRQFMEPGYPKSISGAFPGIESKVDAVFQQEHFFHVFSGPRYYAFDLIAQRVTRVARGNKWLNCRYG

For `COc1cccc(CC(=O)Nc2cc3c(=O)n(Cc4ccc(C(=O)O)cc4)cnc3cc2F)c1` [A2], the IC50 in experiment [1] was greater than 100 µM; against MMP-17CD, greater than 100 µM; in experiment [2], greater than 100 µM; in experiment [3], greater than 100 µM; in experiment [4], 53 nM; in experiment [5], greater than 100 µM. The molecule further displayed an IC50 at MMP-8FL greater than 100 µM.

On to `O=C(Cc1ccc(F)cc1)Nc1ccc2ncn(Cc3ccc(C(=O)O)cc3)c(=O)c2c1` [A4], for which the IC50 is greater than 100 µM in experiment [6]; greater than 100 µM in [1]; greater than 100 µM against MMP-17CD; greater than 30 µM in experiment [2]; greater than 100 µM in experiment [3]; 36 nM in [4]. In addition, the IC50 (in experiment [5]; against MMP-8FL) was greater than 100 µM in each case.

Consider `O=C(Cc1cccc(F)c1)Nc1ccc2ncn(Cc3ccc(C(=O)O)cc3)c(=O)c2c1` [A5], for which the IC50 in experiment [6] was greater than 100 µM; in experiment [1] it was greater than 100 µM; against MMP-17CD, greater than 100 µM; in experiment [2], greater than 30 µM; in experiment [3] it was greater than 100 µM; in experiment [4], 250 nM. The IC50 (in [5]; against MMP-8FL) was greater than 100 µM throughout.

On to `COc1ccc(CC(=O)Nc2cc3c(=O)n(Cc4ccc(C(=O)O)cc4)cnc3cc2F)cc1` [A6], for which, in experiment [4], the IC50 was determined as 5.3 nM. In other words, the single-digit nanomolar range.

Turning to `Cc1ccc(CC(=O)Nc2cc3c(=O)n(Cc4ccc(C(=O)O)cc4)cnc3cc2F)cc1` [A7], the IC50 in experiment [4] was 100 nM.

Regarding `O=C(Cc1ccc(O)cc1)Nc1cc2c(=O)n(Cc3ccc(C(=O)O)cc3)cnc2cc1F` [A8], the IC50 in experiment [4] stood at 21 nM.

In the case of `COc1ccc(CC(=O)Nc2ccc3ccn(Cc4ccc(C(=O)O)cc4)c(=O)c3c2)cc1` [B2], the half-maximal inhibitory concentration (IC50) in experiment [6] is greater than 30 µM; in [1] it was greater than 65 µM; on MMP-17CD, greater than 30 µM; in [2], greater than 30 µM; against MMP-12CD, greater than 30 µM; in experiment [4] it was 13 nM. For the same molecule, on MMP-8FL, the IC50 is greater than 30 µM.

Take `O=C(Cc1cccc(F)c1)Nc1ccc2ccn(Cc3ccc(C(=O)O)cc3)c(=O)c2c1` [B3]: the half-inhibitory concentration (IC50) was greater than 30 µM in experiment [6]; greater than 65 µM in experiment [1]; greater than 30 µM against MMP-17CD; greater than 30 µM in [2]; greater than 30 µM on MMP-12CD; 292 nM in experiment [4]. At MMP-8FL, this molecule yielded an IC50 greater than 30 µM.

In the case of `O=C(Cc1ccc(F)cc1)Nc1ccc2ccn(Cc3ccc(C(=O)O)cc3)c(=O)c2c1` [B4], the IC50 in [6] was greater than 30 µM; in experiment [1] it was greater than 65 µM; against MMP-17CD, greater than 30 µM; in experiment [2], greater than 30 µM; on MMP-12CD, greater than 30 µM; in experiment [4] it was 48 nM. In addition, the IC50 at MMP-8FL is greater than 30 µM.

In the case of `COc1cccc(CC(=O)Nc2ccc3ncn(Cc4ccc(C(=O)O)cc4)c(=O)c3c2)c1` [Compound Example A1, 4-{6-[2-(3-Methoxy-phenyl)-acetylamino]-4-oxo-4H-quinazolin-3-ylmethyl}-benzoic acid], the half-inhibitory concentration (IC50) in experiment [6] is greater than 30 µM; in experiment [1] it was greater than 65 µM; on MMP-17CD it was greater than 30 µM; in experiment [2] it was greater than 30 µM; on MMP-12CD, greater than 30 µM; in [4], 38 nM. Also, the IC50 on MMP-8FL is greater than 30 µM.

Take `COc1cccc(CC(=O)Nc2ccc3ccn(Cc4ccc(C(=O)O)cc4)c(=O)c3c2)c1` [Compound Example B1, 4-{7-[2-(3-Methoxy-phenyl)-acetylamino]-1-oxo-1H-isoquinolin-2-ylmethyl}-benzoic acid]: the IC50 in [6] was greater than 30 µM; in [1], greater than 65 µM; on MMP-17CD, greater than 30 µM; in experiment [2], greater than 30 µM; at MMP-12CD, greater than 30 µM; in experiment [4], 53 nM. This molecule also came in with an IC50 against MMP-8FL greater than 30 µM.
